Assay results: patent EP0845210A1, “New herbicidal compositions” (RHONE-POULENC AGRICULTURE LTD., priority 1994, dated 1996)

Tests used:
Assay type in all cases: in vivo
[1] = tested on: maize (Zea mays); assay: Procedure D: pre-emergence field trial (Volga, Brookings), crop phytotoxicity about 26 days after treatment
Protocol: (§1) The following experiments were carried out pre-emergence of the weed species. Compound A, formulated as a wettable dispersible granule as described in Example 1 herebelow (750g per kilogram) and each acetochlor (used as the commercially available formulation "Harness" (trade mark), an emulsifiable concentrate containing 960g of acetochlor per kilogram, and which also contains the safening agent flurazole, metolachlor (used as the commercially available formulation "Duelor" (trade mark), an emulsifiable concentrate emulsifiable concentrate containing 960g of metolachlor per kilogram), alachlor (used as the commercially available formulation "Lasso" (trade mark), an emulsifiable concentrate containing 480g of alachlor per kilogram) and dimethenamid (used as the commercially available formulation "Frontiere" (trade mark), a flowable containing 900g/l active ingerident) were dissolved in water and sprayed at a volume rate of 187 litres/hectare on various test plots (10 square meters in area) either alone or in mixtures. The soil was a clay-loam, with a pH of 7, the experiments being conducted in June in Volga, Brookings, U.S.A. The various weed and crop species were drill sown and the various compositions were applied on the same day after drilling. Three replicates were performed and the efficacy of the various mixtures were determined by visual assessment of the percentage phytotoxicity in comparison with an untreated control. Assessment was made about 26 days after treatment. In the Tables which follow the dose is expressed in grammes per hectare and the figures in brackets represent the expected results according to the Colby formula.

[2] = tested on: Echinochloa crus-galli; assay: Procedure A: pre-emergence glasshouse pot test, growth reduction assessed two weeks after treatment
Description: (§2) Seed of the various species of broad-leaf or grass weeds were sown in unsterilised clay loam soil in 7 centimetre by 7 centimetre plastic plant pots. The pots were watered and allowed to drain. The soil surface was then sprayed with ranges of concentrations of either the individual herbicide or mixtures of two herbicides in various proportions, dissolved in a 50:50 by volume solution of acetone and water, using a track sprayer set to deliver the equivalent of 290 l/ha. All herbicides were used as unformulated technical materials except dimethenamid, which was used as the commercial formulation "Frontiere" (trade mark), a flowable containing 900g/l active ingredient; and alachlor, which was used as "Lasso" (trade mark), an emulsifiable concentrate formulation containing 480g/l active ingredient.
(§3) Treated pots were placed at random in four replicate blocks per treatment for each plant species. The pots were held, in a glasshouse, standing on moist capillary matting, under lights and with overhead watering twice daily.
(§4) Two weeks after treatment the percent reduction in plant growth, compared to an untreated control, was assessed.
(§5) Mean percent reduction in plant growth was calculated for each treatment. Dose/mean response was plotted on Log concentration/Probability graph paper, and lines fitted by eye. For herbicide mixtures a dose/response line for the first herbicide was drawn for each dose rate of the second herbicide and a dose/response line for the second herbicide was drawn for each dose rate of the first herbicide. The doses representing a 90% reduction in plant growth (LD90's) were read from these lines and plotted on graphs whose axes were dose rates of the two herbicides. The line joining these points is an Isobole i.e. a line joining points (mixtures) of equal activity, as described by P.M.L. Tammes, Neth. J. Plant Path. 70 (1964) : 73-80. A line was also drawn joining the LD90's of the individual components of the mixture. This line represents the theoretical isobole if the effect of the two components is additive i.e. there is no interaction between them. Isoboles falling below this line indicate synergy between the components while lines lying above it indicate antagonism.
(§6) In the tables that follow 'dose' represents the dose rate in grammes per hectare of the active ingredient used; and the figures for the weed control are percentages reduction in growth when compared with the untreated controls.

[3] = tested on: Digitaria sanguinalis; assay: as above
Description: as §2, §3, §4, §5, §6

[4] = tested on: Panicum miliaceum; assay: Procedure D: pre-emergence field trial (Volga, Brookings), visual assessment about 26 days after treatment
Protocol: as §1

[5] = tested on: Helianthus annuus; assay: as above
Protocol: as §1

[6] = tested on: Abutilon theophrasti; assay: as above
Protocol: as §1

[7] = tested on: Abutilon theophrasti; assay: Procedure B: pre-emergence field trial (research farm in Brazil), visual assessment 36 or 40 days from sowing
Protocol: (§7) The experiments were carried out pre-emergence of the weed species at • (i) a research farm in Brazil with Compounds B and C (each formulated as a wettable powder) and metolachlor, (formulated as a suspension concentrate); and • (ii) in research farms in the Mid West corn belt of the United States with compound D (formulated as a wettable powder) and metolachlor (formulated as a suspension concentrate).
(§8) A solution of the two active ingredients (a.i.) was mixed for one hour and applied at a spray volume of 231 litres/hectare to a 3 metre by 5 metre test plot comprising the weed species which were sown 2 days earlier. 3 replicates were performed. A control plot was sprayed with a solution not containing test compound. Visual assessment of phytotoxicity was made after 36 or 40 days from sowing each weed species based on a comparison with the control plot.
(§9) The tables below show the observed percentage control of the weed species by each combination, with the figure in brackets representing the predicted value using the Limpel formula. The dose rates are in grammes per hectare. Table E1

[8] = tested on: Setaria faberii; assay: Procedure B: pre-emergence field trial (Mid West corn belt research farms), visual assessment 36 or 40 days from sowing
Protocol: as §7, §8, §9

[9] = tested on: Amaranthus retroflexus; assay: as above
Protocol: as §7, §8, §9

[10] = tested on: Setaria viridis; assay: Procedure A: pre-emergence glasshouse pot test, growth reduction assessed two weeks after treatment
Description: as §2, §3, §4, §5, §6

[11] = tested on: Amaranthus retroflexus; assay: as above
Description: as §2, §3, §4, §5, §6

[12] = acetochlor 480 g/ha alone (Harness, contains safener flurazole)
[13] = D 37.5 g/ha alone, 1st Research Farm
[14] = D 37.5 g/ha alone, 2nd Research Farm
[15] = D 37.5 g/ha alone, 3rd Research Farm
[16] = metolachlor 480 g/ha alone, 1st Research Farm
[17] = metolachlor 480 g/ha alone, 2nd Research Farm
[18] = metolachlor 480 g/ha alone, 3rd Research Farm

With CCOCN(C(=O)CCl)c1c(C)cccc1CC [Acetochlor, 2-chloro-N-ethoxymethyl-6'-ethylacet-o-toluidide, reference compound] the percentage phytotoxicity [1, 12] was 0%, the “percent reduction in plant growth” value ([2]; acetochlor 3.75 g/ha alone) was 12.5% and the “percent reduction in plant growth” value ([2]; acetochlor 7.5 g/ha alone) was 36.25%. The “percent reduction in plant growth” value ([2]; acetochlor 15 g/ha alone) was 55%, the “percent reduction in plant growth” value ([2]; acetochlor 30 g/ha alone) was 88.75% and the “percent reduction in plant growth” value ([2]; acetochlor 60 g/ha alone) was 98.75%. For the same molecule, the “percent reduction in plant growth” value ([2]; acetochlor 120 g/ha alone) was 98.75%, the “percent reduction in plant growth” value ([2]; acetochlor 240 g/ha alone) was 100% and the “percent reduction in plant growth” value ([3]; acetochlor 3.75 g/ha alone) was 0%. The “percent reduction in plant growth” value ([3]; acetochlor 7.5 g/ha alone) was 0%, the “percent reduction in plant growth” value ([3]; acetochlor 15 g/ha alone) was 7.5% and the “percent reduction in plant growth” value ([3]; acetochlor 30 g/ha alone) was 32.5%. The “percent reduction in plant growth” value ([3]; acetochlor 60 g/ha alone) was 85%, the “percent reduction in plant growth” value ([3]; acetochlor 120 g/ha alone) was 100% and the “percent reduction in plant growth” value ([3]; acetochlor 240 g/ha alone) was 98.75%. It also gave a percentage phytotoxicity [4, 12] of 72%, a percentage phytotoxicity [5, 12] of 10% and a percentage phytotoxicity [6, 12] of 35%.

CCc1cccc(CC)c1N(COC)C(=O)CCl [Alachlor, 2-chloro-2',6'-diethyl-N-methoxymethylacetanilide, reference compound] was tested, and the percentage phytotoxicity ([1]; alachlor 480 g/ha alone) was 0%, the “percent reduction in plant growth” value ([2]; alachlor 4 g/ha alone) was 18.75% and the “percent reduction in plant growth” value ([2]; alachlor 8 g/ha alone) was 5%. For the same molecule, the “percent reduction in plant growth” value ([2]; alachlor 16 g/ha alone) was 12.5%, the “percent reduction in plant growth” value ([2]; alachlor 32 g/ha alone) was 46.25% and the “percent reduction in plant growth” value ([2]; alachlor 64 g/ha alone) was 91.25%. For the same molecule, the “percent reduction in plant growth” value ([2]; alachlor 128 g/ha alone) was 98.75%, the “percent reduction in plant growth” value ([3]; alachlor 4 g/ha alone) was 0% and the “percent reduction in plant growth” value ([3]; alachlor 8 g/ha alone) was 25%. The “percent reduction in plant growth” value ([3]; alachlor 16 g/ha alone) was 6.25%, the “percent reduction in plant growth” value ([3]; alachlor 32 g/ha alone) was 37.5% and the “percent reduction in plant growth” value ([3]; alachlor 64 g/ha alone) was 75%. For the same molecule, the “percent reduction in plant growth” value ([3]; alachlor 128 g/ha alone) was 95%, the percentage phytotoxicity ([4]; alachlor 480 g/ha alone) was 53% and the percentage phytotoxicity ([5]; alachlor 480 g/ha alone) was 3%. The percentage phytotoxicity ([6]; alachlor 480 g/ha alone) was 20%.

With CS(=O)(=O)c1ccc(C(=O)c2cnoc2C2CC2)c(C(F)(F)F)c1 [Compound B, 5-cyclopropyl-4-(4-methylsulphonyl-2-trifluoromethyl)benzoylisoxazole] the “observed percentage control of the weed species” value (“observed percentage control” for short) ([7]; B 50 g/ha alone) was 75%.

In the case of CS(=O)(=O)c1ccc(C(=O)c2cnoc2C2CC2)c(Cl)c1 [Compound C, 4-(2-chloro-4-methylsulphonyl)benzoyl-5-cyclopropylisoxazole], the “observed percentage control” value ([7]; C 50 g/ha alone) is reported as 73%.

CS(=O)(=O)c1cc(Cl)ccc1C(=O)c1cnoc1C1CC1 [Compound D, 4-(4-chlor-2-methylsulphonyl)benzoyl-5-cyclopropylisoxazole] was tested, and the “observed percentage control” value [8, 13] was 22%, the “observed percentage control” value [8, 14] was 62% and the “observed percentage control” value [8, 15] was 32%. The “observed percentage control” value [9, 13] was 38%, the “observed percentage control” value [9, 14] was 10% and the “observed percentage control” value [9, 15] was 10%.

With COCC(C)N(C(=O)CCl)c1c(C)csc1C (stereo not drawn) [Dimethenamid, 2-chloro-N-(2,4-dimethyl-3-thienyl)-N-(2-methoxy-1-methyl)ethyl-acetamide, reference compound] the percentage phytotoxicity ([1]; dimethenamid 200 g/ha alone) was 0%, the “percent reduction in plant growth” value ([2]; dimethenamid 4 g/ha alone) was 17.5% and the “percent reduction in plant growth” value ([2]; dimethenamid 8 g/ha alone) was 38.75%. The “percent reduction in plant growth” value ([2]; dimethenamid 16 g/ha alone) was 81.25%, the “percent reduction in plant growth” value ([2]; dimethenamid 32 g/ha alone) was 93.5% and the “percent reduction in plant growth” value ([2]; dimethenamid 64 g/ha alone) was 97.5%. For the same molecule, the “percent reduction in plant growth” value ([2]; dimethenamid 128 g/ha alone) was 100%, the “percent reduction in plant growth” value ([3]; dimethenamid 4 g/ha alone) was 16.25% and the “percent reduction in plant growth” value ([3]; dimethenamid 8 g/ha alone) was 15%. For the same molecule, the “percent reduction in plant growth” value ([3]; dimethenamid 16 g/ha alone) was 77.5%, the “percent reduction in plant growth” value ([3]; dimethenamid 32 g/ha alone) was 89.75% and the “percent reduction in plant growth” value ([3]; dimethenamid 64 g/ha alone) was 98.25%. The “percent reduction in plant growth” value ([3]; dimethenamid 128 g/ha alone) was 92.5%, the “percent reduction in plant growth” value ([3]; dimethenamid 256 g/ha alone) was 98.75% and the percentage phytotoxicity ([4]; dimethenamid 200 g/ha alone) was 27%. For the same molecule, the percentage phytotoxicity ([5]; dimethenamid 200 g/ha alone) was 3% and the percentage phytotoxicity ([6]; dimethenamid 200 g/ha alone) was 12%.

In the case of CCc1cccc(C)c1N(C(=O)CCl)C(C)COC (stereo not drawn) [Metolachlor, 2-chloro-6'-ethyl-N-(2-methoxy-1-methylethyl)acet-o-toluidide, reference compound], the percentage phytotoxicity ([1]; metolachlor 480 g/ha alone) is reported as 0%, the “percent reduction in plant growth” value ([10]; metolachlor 2 g/ha alone) is reported as 5% and the “percent reduction in plant growth” value ([10]; metolachlor 4 g/ha alone) is reported as 22.5%. The “percent reduction in plant growth” value ([10]; metolachlor 8 g/ha alone) was 38.75%, the “percent reduction in plant growth” value ([10]; metolachlor 16 g/ha alone) was 61.25% and the “percent reduction in plant growth” value ([10]; metolachlor 32 g/ha alone) was 87.5%. The “percent reduction in plant growth” value ([10]; metolachlor 64 g/ha alone) was 98%, the “percent reduction in plant growth” value ([11]; metolachlor 31.25 g/ha alone) was 46.25% and the “percent reduction in plant growth” value ([11]; metolachlor 62.5 g/ha alone) was 53.75%. For the same molecule, the “percent reduction in plant growth” value ([11]; metolachlor 125 g/ha alone) was 35%, the “percent reduction in plant growth” value ([11]; metolachlor 250 g/ha alone) was 85% and the “percent reduction in plant growth” value ([11]; metolachlor 500 g/ha alone) was 95%. For the same molecule, the “observed percentage control” value ([7]; metolachlor 1000 g/ha alone) was 0%, the percentage phytotoxicity ([4]; metolachlor 480 g/ha alone) was 52% and the percentage phytotoxicity ([5]; metolachlor 480 g/ha alone) was 3%. The percentage phytotoxicity ([6]; metolachlor 480 g/ha alone) was 10%, the “observed percentage control” value [8, 16] was 91% and the “observed percentage control” value [8, 17] was 93%. For the same molecule, the “observed percentage control” value [8, 18] was 84%, the “observed percentage control” value [9, 16] was 38% and the “observed percentage control” value [9, 17] was 78%. For the same molecule, the “observed percentage control” value [9, 18] was 91%.
